Test results taken from ChEMBL document CHEMBL1201862, “PubChem BioAssay data set” (2004).
The source made the active and inactive calls.

How the values were obtained:
Protein skinhead-1 = molecular target: T1, Protein skinhead-1 (Caenorhabditis elegans, UniProt P34707); format: functional
T1 sequence (P34707 whole entry): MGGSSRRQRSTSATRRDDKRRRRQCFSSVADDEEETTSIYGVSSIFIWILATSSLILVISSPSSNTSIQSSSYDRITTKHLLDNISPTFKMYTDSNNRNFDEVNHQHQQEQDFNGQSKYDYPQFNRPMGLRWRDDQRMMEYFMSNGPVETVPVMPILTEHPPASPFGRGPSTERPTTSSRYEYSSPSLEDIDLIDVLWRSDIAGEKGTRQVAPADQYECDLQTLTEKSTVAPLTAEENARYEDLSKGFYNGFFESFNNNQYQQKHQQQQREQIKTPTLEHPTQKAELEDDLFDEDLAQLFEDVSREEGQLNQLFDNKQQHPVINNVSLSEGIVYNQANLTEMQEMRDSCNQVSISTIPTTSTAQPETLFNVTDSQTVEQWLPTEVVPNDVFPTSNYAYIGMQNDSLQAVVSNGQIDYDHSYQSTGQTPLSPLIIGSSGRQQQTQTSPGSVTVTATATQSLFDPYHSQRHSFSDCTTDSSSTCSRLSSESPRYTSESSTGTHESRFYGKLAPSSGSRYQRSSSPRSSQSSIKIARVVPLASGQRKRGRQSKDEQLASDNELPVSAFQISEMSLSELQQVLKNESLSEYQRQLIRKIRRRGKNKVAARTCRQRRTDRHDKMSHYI

[1] = molecular target: Voltage-dependent T-type calcium channel subunit alpha-1H (Homo sapiens, UniProt O95180); format: functional;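 further: channel activity triggered by adding a high calcium stimulation buffer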
Protein RecA = molecular target: T2, Protein RecA (Mycobacterium tuberculosis, UniProt P9WHJ3); assay: Fluorescence Cell-Free Homogeneous Dose Retest to Identify Inhibitors of RecA-Intein Splicing Activity. [Related pubchem assays (depositor defined):AID2097, AID2223, AID489010, AID492950]; format: functional
T2 sequence (P9WHJ3 whole entry): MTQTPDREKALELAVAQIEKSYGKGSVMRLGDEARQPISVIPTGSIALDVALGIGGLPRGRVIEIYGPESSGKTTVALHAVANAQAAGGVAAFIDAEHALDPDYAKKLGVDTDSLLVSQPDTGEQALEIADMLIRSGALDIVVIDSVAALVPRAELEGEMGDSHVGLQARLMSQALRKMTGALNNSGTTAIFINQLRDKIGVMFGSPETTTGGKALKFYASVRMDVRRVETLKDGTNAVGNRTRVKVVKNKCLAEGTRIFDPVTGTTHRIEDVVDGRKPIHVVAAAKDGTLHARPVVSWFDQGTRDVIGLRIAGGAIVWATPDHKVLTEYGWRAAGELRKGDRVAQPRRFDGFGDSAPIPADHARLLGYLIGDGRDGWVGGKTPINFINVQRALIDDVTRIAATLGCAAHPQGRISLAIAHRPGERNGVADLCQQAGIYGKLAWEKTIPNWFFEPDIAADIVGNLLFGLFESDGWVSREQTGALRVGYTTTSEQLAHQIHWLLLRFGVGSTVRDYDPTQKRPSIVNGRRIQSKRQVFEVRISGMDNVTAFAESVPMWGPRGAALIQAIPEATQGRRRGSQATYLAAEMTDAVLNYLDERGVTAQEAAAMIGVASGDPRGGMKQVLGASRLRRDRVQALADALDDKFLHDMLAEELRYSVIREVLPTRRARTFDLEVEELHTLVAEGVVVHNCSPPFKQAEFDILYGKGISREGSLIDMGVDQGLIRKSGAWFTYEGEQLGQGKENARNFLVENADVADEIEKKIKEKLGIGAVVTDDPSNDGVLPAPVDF

[2] = molecular target: T3, Replicative DNA helicase DnaB (Mycobacterium tuberculosis, UniProt P9WMR3); assay: DnaB intein splicing inhibitors, dose response, biochemical, cell-free fluorescence (AID 449749); format: functional
T3 sequence (P9WMR3 whole entry): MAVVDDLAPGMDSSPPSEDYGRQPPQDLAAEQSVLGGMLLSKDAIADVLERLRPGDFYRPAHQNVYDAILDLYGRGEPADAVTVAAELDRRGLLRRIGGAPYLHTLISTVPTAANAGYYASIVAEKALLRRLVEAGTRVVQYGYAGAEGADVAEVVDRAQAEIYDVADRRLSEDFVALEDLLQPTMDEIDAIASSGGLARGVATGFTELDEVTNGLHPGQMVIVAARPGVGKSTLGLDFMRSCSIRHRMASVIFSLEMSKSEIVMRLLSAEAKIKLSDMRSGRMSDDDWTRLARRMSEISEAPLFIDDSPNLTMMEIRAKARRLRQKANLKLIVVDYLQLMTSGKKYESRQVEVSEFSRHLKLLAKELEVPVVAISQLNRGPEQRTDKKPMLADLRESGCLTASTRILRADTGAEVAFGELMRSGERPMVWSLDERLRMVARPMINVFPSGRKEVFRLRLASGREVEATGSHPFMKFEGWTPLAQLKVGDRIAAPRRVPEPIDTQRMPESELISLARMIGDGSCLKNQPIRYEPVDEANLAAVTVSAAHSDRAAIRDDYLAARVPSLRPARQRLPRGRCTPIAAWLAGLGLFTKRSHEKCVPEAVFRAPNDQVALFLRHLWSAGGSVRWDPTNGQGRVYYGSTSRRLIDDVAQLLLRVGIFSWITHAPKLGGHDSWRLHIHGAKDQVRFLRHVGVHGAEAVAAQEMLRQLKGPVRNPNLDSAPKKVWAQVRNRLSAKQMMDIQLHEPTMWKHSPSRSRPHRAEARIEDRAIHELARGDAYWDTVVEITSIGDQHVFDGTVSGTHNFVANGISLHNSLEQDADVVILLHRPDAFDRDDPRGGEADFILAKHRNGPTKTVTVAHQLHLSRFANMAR

H9c2 = assay: cells; format: functional, cell-based; conditions: Rattus norvegicus, H9c2, Myocardium;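 further: confirmatory concentration-response retest of ultra-high-throughput screening hits for modulation of myocardial damage; cell death induced by hydrogen peroxide oxidative stress; compound pretreatment for 60 min then peroxide exposure for 2 h; potency is for protecting the cells against peroxide damage rather than for killing them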
[3] = molecular target: Heat shock protein HSP 90-alpha (Homo sapiens, UniProt P07900); format: functional, organism-based
[4] = molecular target: T4, Rac GTPase-activating protein 1 (Homo sapiens, UniProt Q9H0H5); assay: MgcRacGAP GTPase-activating activity inhibitors, confirmation, biochemical, ADP Hunter fluorescence, primary and confirmatory (AID 624330); format: functional
T4 sequence (Q9H0H5 whole entry): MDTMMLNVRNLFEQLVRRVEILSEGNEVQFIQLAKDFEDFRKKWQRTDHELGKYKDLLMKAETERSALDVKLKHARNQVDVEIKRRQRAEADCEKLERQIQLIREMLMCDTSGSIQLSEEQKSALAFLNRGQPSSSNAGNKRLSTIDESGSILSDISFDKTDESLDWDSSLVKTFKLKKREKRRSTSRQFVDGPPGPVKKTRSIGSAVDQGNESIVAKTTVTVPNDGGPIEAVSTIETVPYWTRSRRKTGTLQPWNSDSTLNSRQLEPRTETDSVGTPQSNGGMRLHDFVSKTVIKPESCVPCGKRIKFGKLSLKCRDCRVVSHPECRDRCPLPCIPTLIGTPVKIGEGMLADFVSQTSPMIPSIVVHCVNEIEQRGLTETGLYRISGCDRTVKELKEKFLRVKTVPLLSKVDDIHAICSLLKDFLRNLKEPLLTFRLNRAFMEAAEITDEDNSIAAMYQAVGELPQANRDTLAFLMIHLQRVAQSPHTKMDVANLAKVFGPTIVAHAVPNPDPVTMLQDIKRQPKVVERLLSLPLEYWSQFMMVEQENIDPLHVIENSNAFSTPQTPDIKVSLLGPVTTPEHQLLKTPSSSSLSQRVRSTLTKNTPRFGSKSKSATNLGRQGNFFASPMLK

Large T antigen = Large T antigen (Simian virus 40, UniProt P03070); format: functional, Betapolyomavirus macacae;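 further: Confirmatory-stage PubChem screen for compounds that inhibit SV40 T antigen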
Streptokinase A = molecular target: T5, Streptokinase A (Streptococcus pyogenes serotype M1, UniProt P10520); assay: S. pyogenes streptokinase expression inhibitors, potency, dose response, plasminogen activation absorbance, OD405 (AID 1914); format: functional, Streptococcus pyogenes M1 GAS;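 further: secreted streptokinase activity via plasminogen activation per viability signal from cell pellet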
T5 sequence (P10520 whole entry): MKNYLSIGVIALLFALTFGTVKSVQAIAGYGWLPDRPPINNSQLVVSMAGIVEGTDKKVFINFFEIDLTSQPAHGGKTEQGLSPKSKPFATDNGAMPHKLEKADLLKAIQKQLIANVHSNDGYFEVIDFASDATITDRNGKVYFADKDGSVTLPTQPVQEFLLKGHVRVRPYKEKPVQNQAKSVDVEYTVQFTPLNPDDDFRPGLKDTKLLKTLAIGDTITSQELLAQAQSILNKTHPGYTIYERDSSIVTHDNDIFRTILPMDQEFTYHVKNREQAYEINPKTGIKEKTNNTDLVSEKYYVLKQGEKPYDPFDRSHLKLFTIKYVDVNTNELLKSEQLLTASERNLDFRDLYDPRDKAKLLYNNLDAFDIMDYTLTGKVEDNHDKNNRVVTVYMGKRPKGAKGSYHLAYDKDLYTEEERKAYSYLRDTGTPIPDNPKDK

Streptococcus = assay: Group A Streptococcus viability loss, dose response, counter-screen for streptokinase expression inhibitor project, luminescence, BacTiterGlo (AID 1915); format: functional, organism-based;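 further: potency for reduction of bacterial viability or growth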
[5] = tested on: Streptococcus sp. 'group A'; assay: growth inhibition of control SK(-) GAS strain, dose response, counter-screen for streptokinase expression inhibitor project, luminescence, kanamycin, BacTiterGlo, confirmation (AID 1900); format: functional, organism-based
Cytochrome P450 2D6 = Cytochrome P450 2D6 (Homo sapiens, UniProt P10635);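 further: CYP2D6 member of a cytochrome P450 panel assay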
Paired box protein Pax-8 = Paired box protein Pax-8 (Homo sapiens, UniProt Q06710); assay: inhibitors of PAX8-driven TPO luciferase reporter, dose response, RMG-I cells, cherry-pick (AID 687027); format: functional, cell-based;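 further: luciferase reporter driven by Pax8 target thyroperoxidase promoter measured by SteadyGlo luminescence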
cells [6] = format: functional, cell-based
cells [7] = format: functional, cell-based; remark: listed apart in the source

Chain of Large T antigen (P03070 whole entry): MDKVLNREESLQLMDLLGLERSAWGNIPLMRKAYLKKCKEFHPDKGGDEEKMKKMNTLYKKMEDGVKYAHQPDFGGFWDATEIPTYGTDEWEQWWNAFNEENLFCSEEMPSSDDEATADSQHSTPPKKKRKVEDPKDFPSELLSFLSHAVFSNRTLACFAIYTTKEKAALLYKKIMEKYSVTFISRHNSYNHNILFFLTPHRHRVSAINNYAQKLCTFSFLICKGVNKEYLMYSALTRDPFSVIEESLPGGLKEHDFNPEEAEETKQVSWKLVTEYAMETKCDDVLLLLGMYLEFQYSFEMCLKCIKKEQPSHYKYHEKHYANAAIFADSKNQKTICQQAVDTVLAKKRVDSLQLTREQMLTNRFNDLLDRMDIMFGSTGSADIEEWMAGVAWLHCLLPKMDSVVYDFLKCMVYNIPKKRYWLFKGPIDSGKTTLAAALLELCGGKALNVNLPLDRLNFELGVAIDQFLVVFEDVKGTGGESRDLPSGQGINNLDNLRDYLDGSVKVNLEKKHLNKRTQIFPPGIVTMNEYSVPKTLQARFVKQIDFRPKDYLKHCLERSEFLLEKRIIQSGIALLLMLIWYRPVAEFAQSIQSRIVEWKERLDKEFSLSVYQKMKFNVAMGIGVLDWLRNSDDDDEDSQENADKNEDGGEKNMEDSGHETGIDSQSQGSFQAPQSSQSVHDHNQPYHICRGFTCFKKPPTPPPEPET
Chain of Paired box protein Pax-8 (Q06710 whole entry): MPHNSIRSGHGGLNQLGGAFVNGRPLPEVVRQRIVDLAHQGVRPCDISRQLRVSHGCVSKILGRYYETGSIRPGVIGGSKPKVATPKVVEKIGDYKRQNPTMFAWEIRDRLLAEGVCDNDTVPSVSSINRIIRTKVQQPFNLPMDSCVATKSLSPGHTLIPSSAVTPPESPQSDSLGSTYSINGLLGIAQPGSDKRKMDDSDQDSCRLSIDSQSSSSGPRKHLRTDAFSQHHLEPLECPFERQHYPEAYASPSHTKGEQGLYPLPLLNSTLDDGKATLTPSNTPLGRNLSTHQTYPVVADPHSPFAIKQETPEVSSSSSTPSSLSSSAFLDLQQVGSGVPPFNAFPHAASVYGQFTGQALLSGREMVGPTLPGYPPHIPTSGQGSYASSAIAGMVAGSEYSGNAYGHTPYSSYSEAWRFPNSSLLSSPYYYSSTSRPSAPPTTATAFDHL
Chain of Cytochrome P450 2D6 (P10635 whole entry): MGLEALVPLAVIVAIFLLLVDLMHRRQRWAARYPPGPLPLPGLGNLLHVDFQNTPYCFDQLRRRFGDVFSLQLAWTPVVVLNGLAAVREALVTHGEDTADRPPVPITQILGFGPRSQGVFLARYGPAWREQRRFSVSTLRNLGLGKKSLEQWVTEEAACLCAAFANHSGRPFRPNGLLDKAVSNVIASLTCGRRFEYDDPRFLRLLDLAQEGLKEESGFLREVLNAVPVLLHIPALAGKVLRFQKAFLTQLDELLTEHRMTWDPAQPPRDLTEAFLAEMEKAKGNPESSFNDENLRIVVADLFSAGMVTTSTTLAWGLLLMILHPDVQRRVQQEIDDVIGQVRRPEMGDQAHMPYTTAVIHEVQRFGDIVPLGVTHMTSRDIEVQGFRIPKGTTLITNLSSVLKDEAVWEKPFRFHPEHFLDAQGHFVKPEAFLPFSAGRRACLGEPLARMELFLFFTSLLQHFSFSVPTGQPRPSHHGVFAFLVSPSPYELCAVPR
Chain of Voltage-dependent T-type calcium channel subunit alpha-1H (O95180 whole entry): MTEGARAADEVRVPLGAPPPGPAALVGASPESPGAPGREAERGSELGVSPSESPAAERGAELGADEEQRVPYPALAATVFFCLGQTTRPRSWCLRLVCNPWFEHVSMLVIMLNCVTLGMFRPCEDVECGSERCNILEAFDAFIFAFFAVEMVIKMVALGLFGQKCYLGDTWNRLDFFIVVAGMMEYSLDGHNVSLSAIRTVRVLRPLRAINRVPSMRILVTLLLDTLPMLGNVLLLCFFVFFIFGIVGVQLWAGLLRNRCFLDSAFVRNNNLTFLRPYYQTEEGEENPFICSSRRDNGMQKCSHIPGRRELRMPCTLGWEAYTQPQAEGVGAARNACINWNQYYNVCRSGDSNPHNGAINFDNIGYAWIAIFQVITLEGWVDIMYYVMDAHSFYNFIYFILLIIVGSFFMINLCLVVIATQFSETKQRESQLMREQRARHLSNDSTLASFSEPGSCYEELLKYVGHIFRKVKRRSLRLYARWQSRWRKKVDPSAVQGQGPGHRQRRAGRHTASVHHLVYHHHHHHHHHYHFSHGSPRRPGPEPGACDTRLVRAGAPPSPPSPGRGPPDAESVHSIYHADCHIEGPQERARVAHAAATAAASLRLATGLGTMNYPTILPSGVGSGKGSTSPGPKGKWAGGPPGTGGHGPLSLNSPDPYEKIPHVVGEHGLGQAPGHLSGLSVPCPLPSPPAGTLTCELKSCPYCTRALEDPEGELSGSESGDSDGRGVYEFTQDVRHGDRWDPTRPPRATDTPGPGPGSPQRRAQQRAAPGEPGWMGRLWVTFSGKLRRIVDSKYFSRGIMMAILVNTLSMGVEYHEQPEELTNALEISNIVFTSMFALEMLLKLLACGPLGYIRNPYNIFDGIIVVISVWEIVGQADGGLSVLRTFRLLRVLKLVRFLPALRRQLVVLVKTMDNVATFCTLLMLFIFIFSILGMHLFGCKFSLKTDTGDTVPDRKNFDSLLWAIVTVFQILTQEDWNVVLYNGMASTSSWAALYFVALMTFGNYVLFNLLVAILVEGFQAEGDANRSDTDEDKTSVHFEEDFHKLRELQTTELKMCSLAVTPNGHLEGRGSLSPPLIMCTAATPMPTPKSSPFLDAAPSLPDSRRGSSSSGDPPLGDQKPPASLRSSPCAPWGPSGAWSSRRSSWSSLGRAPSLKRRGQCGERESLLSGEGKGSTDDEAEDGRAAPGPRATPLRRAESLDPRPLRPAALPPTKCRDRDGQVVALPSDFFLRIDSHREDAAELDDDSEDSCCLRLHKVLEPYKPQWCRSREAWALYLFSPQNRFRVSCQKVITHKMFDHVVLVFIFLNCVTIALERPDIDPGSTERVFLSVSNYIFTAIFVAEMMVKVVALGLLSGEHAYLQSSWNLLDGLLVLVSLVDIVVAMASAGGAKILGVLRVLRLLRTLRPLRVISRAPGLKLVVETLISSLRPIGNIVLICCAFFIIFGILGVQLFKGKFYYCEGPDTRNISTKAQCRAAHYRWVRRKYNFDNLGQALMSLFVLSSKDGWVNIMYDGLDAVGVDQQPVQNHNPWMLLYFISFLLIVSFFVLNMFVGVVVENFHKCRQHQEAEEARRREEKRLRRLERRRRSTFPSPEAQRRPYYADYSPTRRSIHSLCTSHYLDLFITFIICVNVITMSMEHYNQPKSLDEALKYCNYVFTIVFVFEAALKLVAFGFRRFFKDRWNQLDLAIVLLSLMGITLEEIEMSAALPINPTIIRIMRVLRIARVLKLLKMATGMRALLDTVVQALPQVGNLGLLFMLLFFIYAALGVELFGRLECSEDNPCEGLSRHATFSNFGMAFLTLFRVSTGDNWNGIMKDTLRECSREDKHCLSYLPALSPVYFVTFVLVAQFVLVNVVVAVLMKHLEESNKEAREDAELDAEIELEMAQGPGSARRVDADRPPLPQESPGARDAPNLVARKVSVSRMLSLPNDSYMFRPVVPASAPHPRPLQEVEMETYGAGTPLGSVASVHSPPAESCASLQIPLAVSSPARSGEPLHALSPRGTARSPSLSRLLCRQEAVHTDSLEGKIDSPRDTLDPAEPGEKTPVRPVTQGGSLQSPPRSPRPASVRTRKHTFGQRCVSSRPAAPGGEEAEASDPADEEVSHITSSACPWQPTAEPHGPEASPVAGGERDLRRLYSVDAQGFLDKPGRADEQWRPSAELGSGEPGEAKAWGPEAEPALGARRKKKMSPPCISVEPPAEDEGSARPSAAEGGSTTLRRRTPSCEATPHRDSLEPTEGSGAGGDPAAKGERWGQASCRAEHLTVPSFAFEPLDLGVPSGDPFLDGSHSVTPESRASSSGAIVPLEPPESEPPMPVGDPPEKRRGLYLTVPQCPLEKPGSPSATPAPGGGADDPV

Cc1ccccc1NC(=O)CSC1=C(C#N)C(c2ccsc2)CC(=O)N1 (configuration not stated)
IC50 (Protein skinhead-1): > 100 µM (inactive)

O=C(CSC1=NCCS1)Nc1ccc(S(=O)(=O)N2CCCCCC2)cc1
EC50 [1]: 7.64 µM (active) | EC50 (Protein RecA): 10.1 µM (active) | AC50 [2]: 21.8 µM (active)

CC1CCCN(C(=O)c2ccncc2)C1 (configuration not stated)
IC50 (Protein skinhead-1): > 100 µM (inactive)

O=C(Cn1[nH]c(=O)c2ccccc2c1=O)OCC(=O)N1CCc2ccccc2C1
IC50 (H9c2): 28.5 µM (active)

Fc1cc(Br)ccc1COc1ccc(-c2nnco2)cc1
IC50 (Protein skinhead-1): > 100 µM (inactive)

Cc1cc(C)c(C)c(S(=O)(=O)N2CCN(C(=O)c3cc(O)nc4ccccc34)CC2)c1C
IC50 (H9c2): > 79 µM (inactive)

C[C@@]12C(=O)Nc3ccc(Br)cc3C(=O)N1[C@H]1c3ccccc3OC[C@@H]1[C@@H]2c1ccccc1
AC50 [3]: 0.427 µM (active)

O=C1N=C(NCc2ccccc2)S/C1=C/c1ccc(O)cc1
IC50 [4]: 18.9 µM (active) | IC50 (Large T antigen): 11.7 µM (active)

Cn1c(=O)c2c(nc(Br)n2Cc2ccc3ccccc3c2)n(C)c1=O
IC50 (H9c2): 13.7 µM (active)

Cc1ccc2sc(NNC(=O)c3ccc4c(c3)OCCO4)nc2c1C
EC50 (Streptokinase A): > 150 µM (not active) | EC50 (Streptococcus): 18.3 µM (active) | IC50 (H9c2): 32.5 µM (inactive) | EC50 [5]: 13 µM (active)

COc1cc([C@@H]2Oc3cc(C4Oc5cc(O)cc(O)c5C(=O)[C@H]4O)ccc3O[C@H]2CO)ccc1O (some centres not stated)
IC50 (Large T antigen): 57.5 µM (active)

COc1cccc(/C=N/Nc2ncnc3scc(-c4ccccc4)c23)c1OC
IC50 (H9c2): > 79 µM (inactive)

Cn1ncc(Cl)c1C(=O)N/N=C/c1ccccn1
IC50 (H9c2): 71.6 µM (inactive)

CNC(=S)N1CCN(c2ccc(OC)cc2)CC1
IC50 (Large T antigen): 34 µM (active)

CCCCn1nc(C(=O)Oc2ccc3c(C)cc(=O)oc3c2)c2ccccc2c1=O
IC50 (H9c2): > 79 µM (inactive)

Clc1ccc(-c2nnc(-c3cccnc3)o2)cc1
IC50 (Protein skinhead-1): 30.1 µM (active)

CCOc1nc(-c2ccncc2)nc2ccccc12
IC50 (Protein skinhead-1): > 100 µM (inactive)

CC(O)CCc1ccc(O)cc1 (configuration not stated)
IC50 (Large T antigen): 25.4 µM (active)

CCCc1nc2ccccc2c(=O)n1-c1ccc(OC)cc1
IC50 (Protein skinhead-1): > 100 µM (inactive) | AC50 (Cytochrome P450 2D6): 14.1 µM (inconclusive)

CCC(C)N(C(=O)COC(=O)Cc1nnc(O)c2ccccc12)C1CCS(=O)(=O)C1 (configuration not stated)
IC50 (H9c2): > 79 µM (inactive)

Brc1ccc(-c2cn3cccnc3n2)cc1
IC50 (Protein skinhead-1): > 100 µM (inactive)

C[C@@H]1CCCCO[C@@H](CN(C)Cc2ccc(Cl)c(Cl)c2)[C@H](C)CN([C@@H](C)CO)C(=O)c2cc(NC(=O)Cc3ccccc3)ccc2O1
AC50 (Paired box protein Pax-8): 4.54 µM (active)

CC(=O)Nc1cc(-c2cccc(NS(C)(=O)=O)c2)cn2c(-c3cccc(C(C)=O)c3)cnc12
IC50 (H9c2): 12.8 µM (active)

CC1=CC(C)CC(C)OC(=O)CC(c2ccc(O)cc2)NC(=O)C(Cc2c(Br)[nH]c3ccccc23)N(C)C(=O)C(C)NC(=O)C(C)C1 (configuration not stated)
AC50 [3]: 4.09 µM (active) | AC50 (Paired box protein Pax-8): < 0.26 µM (active)

COc1ccc(CNC(=S)N/N=C/c2ccc(O)c(OC)c2)cc1
EC50 (cells [6]): > 350 µM (not active) | IC50 (Large T antigen): 27.7 µM (active) | EC50 (cells [7]): > 350 µM (not active)

COc1cc(CNc2ccc3c(c2)CCC3)cc(OC)c1O
IC50 (Large T antigen): > 100 µM (active)

Cc1nn(-c2ccc([N+](=O)[O-])cc2)c(O)c1/C=N/CCN1CCN(C(=O)c2cccc(F)c2)CC1
AC50 [3]: 5.99 µM (active)
